Source: patent US9962333B2, “Timed release of substances to treat ocular disorders” (BOARD OF TRUSTEES OF NORTHERN ILLINOIS UNIVERSITY, priority 2013, dated 2018)
In brackets after ≈: the same amount, converted by molar mass.

Assay: physchem
Conditions: 37 °C, aqueous with cosolvent or surfactant or cyclodextrin, thermodynamic from solid
Method: (a) 50 mg of riboflavin was mixed with different concentrations of HP-β-CD (5, 10, 15, 20, 25, 30 mM)
(b) the mixture was stirred on rotary shaker for 72 hours at 37° C.
(c) after reaching equilibrium, samples were filtered through a 0.2 μm filter and suitably analyzed using UV-vis spectrophotometer.
(b) The mixture was stirred for 72 hrs. on a rotary shaker at 37° C.
(c) After reaching equilibrium, samples were filtered through 0.2 μm membrane filter & analyzed using a spectrophotometer.
(b) The solutions were left to equilibrate for 3 days on a shaker.
(c) After filtration, the solutions were analyzed by UV-vis spectroscopy.
The UV-vis absorption spectrum was obtained for each solution.
The data was used to plot a phase solubility curve for both the cyclodextrine.
50 mg of ofloxacin was added to each sample and then shaken for 72 hrs to attain equilibrium.

Q: Which results are given for Cc1cc2nc3c(=O)[nH]c(=O)nc-3n(C[C@H](O)[C@H](O)[C@H](O)CO)c2cc1C [Riboflavin, riboflavin]?
A: solubility at 72 h (Solubility for HPβ CD): 33 mg/mL (≈ 87.8 mM); solubility at 72 h (Solubility for methyl β CD): 31.1 mg/mL (≈ 82.6 mM)
